Data: US6946447B2, “MDM2-specific antisense oligonucleotides” (Hybridon, Inc., priority 1997, dated 2005)
Where two headings read alike, the source gives them in different places. Strand notation (5' to 3'): a small letter for the sugar, then the base; units joined by * are phosphorothioate-linked, units joined directly phosphodiester-linked; [ ] holds rarer units or linkages, { } end groups; capitals alone tell only the bases. d = 2'-deoxy (DNA)

Experiments:
p53 = assay: BP100-luciferase reporter in several representative cell lines; format: cell-based; conditions: stably transfected cell lines, 20 hr (FIG. 13)
Description: Cells stably transfected with the BP100-luciferase reporter were treated with antisense oligonucleotides at indicated concentrations for 20 hr. Luciferase activity/unit protein was determined and the magnitude of induction was shown compared to cells not treated with oligonucleotides. AS2M4: a 4 bp mismatch control of AS5-2. K: an unrelated oligonucleotide.
In order to determine whether the p53 protein that accumulates after inhibition of MDM2 is functionally active, a p53-responsive BP100-luciferase reporter plasmid was transfected into several representative cell lines. Stably transfected cells were then treated with AS5-2 or control oligonucleotides. […] The magnitude of p53 transcription activation is consistent with the fact that most of the p53 accumulation occurs in the nucleus, which has a low basal level of p53.

DNA synthesis = DNA synthesis by BrdU incorporation normalized to viable cells; format: cell-based; conditions: cell lines that do not undergo significant apoptosis, 100 nM, 20 hr (FIG. 15)
[1] = system: MDM2, p53 and p21 protein levels in LS174T cells; assay: Western blot of MDM2, p53 and p21 in LS174T cells; format: cell-based, human; conditions: 400 nM Oligo 24 hr
Description: (§1) Chemicals and Reagents. Cell culture media and phosphate-buffered saline (PBS) were obtained from Sigma Chemical Co. (St. Louis, Mo.). Fetal bovine serum (FBS), antibodies against p53 and p21, Lipofectin, trypsin, penicillin-streptomycin, and trypan blue stain were purchased from GIBCO-BRL (Grand Island, N.Y.). The anti-human-MDM2 monoclonal antibody (Chen L. et al., Proc Natl Acad Sci USA, 95: 195-200, 1998; Chen L. et al., Mol. Med. 5: 21-34, 1999) was kindly provided by J. Chen (Moffitt Cancer Center, Tampa, Fla.). Chemotherapeutic agents adriamycin and 5-fluorouracil (5-FU) were obtained from Sigma. Natural product topoisomerase I inhibitor 10-hydroxycamptothecin (HCPT) was obtained from the Midwest Co. (Beijing, China) with the purity of the drug being greater than 98% (Zhang R. et al., Cancer Chemother Pharm 41: 257-267, 1998). Cell Culture. The tumor cell lines, LS174T and DLD-1 were obtained from the American Type Culture Collection (Rockville, Md.) and cultured according to their instructions. LS 174T cells were cultured in MEM with 0.1 mM nonessential amino acids and Earle's balanced salt solution containing 10% FBS and DLD-1 cells in RPMI 1640 medium containing 10% FBS. All media included 1% penicillin/streptomycin. […] Cells were incubated with Oligos AS or ASM at various concentrations for 72 hr, in the presence of Lipofectin (7 μg/ml). […] Western Blot Analysis. The MDM2, p53 and p21 levels in cultured cells were analyzed by using the methods described previously (earlier (Chen L. et al., Proc Natl Acad Sci USA, 95: 195-200, 1998; Chen L. et al., Mol. Med. 5: 21-34, 1999; Wang H. et al., Int J. Oncol. 15: 653-660, 1999). In brief, cell lysate containing identical amounts of total protein were fractionated by SDS-PAGE and transferred to Bio-Rad Trans-Blot nitrocellulose membranes (Bio-Rad Laboratories, Hercules, Calif., USA). The nitrocellulose membrane was then incubated with blocking buffer (PBS containing 0.1% Tween 20 and 5% non-fat milk) for 1 hr at room temperature and washed with the washing buffer (PBS containing 0. 1% Tween 20) for 5 min twice. The membrane was incubated with primary (anti-MDM2, anti-p53, or anti-p21) antibody overnight at 4° C. or for 1 hr at room temperature with gentle shaking. The membrane was washed with the washing buffer for 15 min and then twice for 5 min, and then incubated with 1:5000 diluted goat anti-mouse IgG-horse radish peroxidase conjugated antibody (Bio-Rad, Hercules, Calif.) for 1 hr at room temperature. After washing as described above the protein of interest was detected by ECL reagents from Amersham (Arlington Height, Ill.). Results. LS174T Model. In vitro inhibition of MDM2 expression by Oligo AS was shown in a sequence-specific, increasing dose-dependent manner (FIG. 19). […] Control oligonucleotide, Oligo ASM had no effect on MDM2, p53 or p21 protein levels at 500 nM, the highest concentration tested in the study.
Following in vitro combination treatment of Oligos and chemotherapeutic agents HCPT, adriamycin, and 5-FU, the protein levels of MDM2, p53 and p21 were determined in LS174T cells. Cells were incubated with 400 nM Oligo in the presence of Lipofectin for 24 hr, followed by addition of various concentrations of chemotherapeutic agents and incubation for additional 24 hr.

[2] = system: MDM2, p53 and p21 protein levels in DLD-1 cells; assay: Western blot of MDM2, p53 and p21 in DLD-1 cells; format: cell-based, human
Description: as §1
Following in vitro combination treatment of Oligos and chemotherapeutic agents HCPT, adriamycin, and 5-FU, the protein levels of MDM2, p53 and p21 were determined in DLD-1 cells. Cells were incubated with 200 nM Oligo in the presence of Lipofectin for 24 hr, followed by addition of various concentrations of chemotherapeutic agents and incubation for an additional 24 hr.

DLD-1 cells = assay: DLD-1 cell growth by trypan blue viability staining; format: cell-based, human; conditions: 72 hr, Lipofectin
Description: (§2) Chemicals and Reagents. Cell culture media and phosphate-buffered saline (PBS) were obtained from Sigma Chemical Co. (St. Louis, Mo.). Fetal bovine serum (FBS), antibodies against p53 and p21, Lipofectin, trypsin, penicillin-streptomycin, and trypan blue stain were purchased from GIBCO-BRL (Grand Island, N.Y.). The anti-human-MDM2 monoclonal antibody (Chen L. et al., Proc Natl Acad Sci USA, 95: 195-200, 1998; Chen L. et al., Mol. Med. 5: 21-34, 1999) was kindly provided by J. Chen (Moffitt Cancer Center, Tampa, Fla.). Chemotherapeutic agents adriamycin and 5-fluorouracil (5-FU) were obtained from Sigma. […] The MDM2, p53 and p21 levels in cultured cells were analyzed by using the methods described previously (earlier (Chen L. et al., Proc Natl Acad Sci USA, 95: 195-200, 1998; Chen L. et al., Mol. Med. 5: 21-34, 1999; Wang H. et al., Int J. Oncol. 15: 653-660, 1999). In brief, cell lysate containing identical amounts of total protein were fractionated by SDS-PAGE and transferred to Bio-Rad Trans-Blot nitrocellulose membranes (Bio-Rad Laboratories, Hercules, Calif., USA). The nitrocellulose membrane was then incubated with blocking buffer (PBS containing 0.1% Tween 20 and 5% non-fat milk) for 1 hr at room temperature and washed with the washing buffer (PBS containing 0. […]

[3] = mice bearing DLD-1 xenografts
LS174T cells = assay: LS174T cell growth by trypan blue viability staining; format: cell-based, human; conditions: 72 hr, Lipofectin
Description: as §2

[4] = system: MDM2, p53 and p21 protein levels in LS174T cells; assay: Western blot of MDM2, p53 and p21 in LS174T cells; format: cell-based, human; conditions: up to 500 nM, 24 hr, Lipofectin
[5] = system: human colon cancer DLD-1 xenografts; assay: Tumor growth in nude mice bearing DLD-1 xenografts; format: in vivo
[6] = mice bearing LS174T xenografts
[7] = system: human colon cancer LS174T xenografts; assay: Tumor growth in nude mice bearing LS174T xenografts
[8] = day 3, oligo 20, HCPT 3, 5-FU 10 mg/kg/day
[9] = day 6, oligo 20, HCPT 3, 5-FU 10 mg/kg/day
[10] = day 9, oligo 20, HCPT 3, 5-FU 10 mg/kg/day
[11] = day 12, oligo 20, HCPT 3, 5-FU 10 mg/kg/day
[12] = day 15, oligo 20, HCPT 3, 5-FU 10 mg/kg/day

## AS2M4: 4 bp mismatch control of AS5-2, 5′-TGACTCTTGTCCTTACTCAC-3′; SEQ ID NO: 26 (DNA dT*dG*dA*dC*dT*dC*dT*dT*dG*dT*dC*dC*dT*dT*dA*dC*dT*dC*dA*dC)
p53
  induction of p53 transcription function: significantly reduced efficiency
DNA synthesis
  rate of DNA synthesis (BrdU incorporation): weaker

## Oligo ASM: mismatched control of Oligo AS, 5′-UGTCACCCTTTTTCATUCAC-3′; SEQ ID NO:50 (chemistry not given here)
[1]; then 5-FU 24 hr
  MDM2, p53 and p21 protein levels, oligo pre-treatment then 5-FU: minimal effect
[1]; then HCPT 24 hr
  MDM2, p53 and p21 protein levels, oligo pre-treatment then HCPT: minimal effect
[1]; then adriamycin 24 hr
  MDM2, p53 and p21 protein levels, oligo pre-treatment then adriamycin: minimal effect
[2]
  effect on MDM2, p53 or p21 protein levels: no effect
[2]; 200 nM Oligo 24 hr, then 5-FU 24 hr
  MDM2, p53 and p21 protein levels, oligo pre-treatment then 5-FU: minimal effect
[2]; 200 nM Oligo 24 hr, then HCPT 24 hr
  MDM2 and p21 protein levels, oligo pre-treatment then HCPT: minimal effect
[2]; 200 nM Oligo 24 hr, then adriamycin 24 hr
  MDM2 and p21 protein levels, oligo pre-treatment then adriamycin: minimal effect
DLD-1 cells
  effect on tumor cell growth: no significant effect
[3]; day 3
  Survival Rates of Animals: 100%
[3]; day 6
  Survival Rates of Animals: 100%
[3]; day 9
  Survival Rates of Animals: 100%
[3]; day 12
  Survival Rates of Animals: 100%
[3]; day 15
  Survival Rates of Animals: 100%
[3]; day 18
  Survival Rates of Animals: 100%
[3]; day 21
  Survival Rates of Animals: 66.7%
LS174T cells
  effect on tumor cell growth: no significant effect
[4]
  effect on MDM2, p53 and p21 protein levels: no effect
[5]
  effect of combination treatment on tumor growth: no significant effect
[5]; 20 mg/kg/day
  effect on in vivo tumor growth: minimal effect
[5]; day 3
  Ratio (%) of % T:C with oligo to % T:C without oligo ([2]/[1] or [3]/[1]): 82%
[5]; [8]
  Growth ratio % T:C: 81.5%
[5]; day 6
  Ratio (%) of % T:C with oligo to % T:C without oligo ([2]/[1] or [3]/[1]): 88%
[5]; [9]
  Growth ratio % T:C: 87.5%
[5]; day 9
  Ratio (%) of % T:C with oligo to % T:C without oligo ([2]/[1] or [3]/[1]): 70%
[5]; [10]
  Growth ratio % T:C: 79.3%
[5]; day 12
  Ratio (%) of % T:C with oligo to % T:C without oligo ([2]/[1] or [3]/[1]): 66%
[5]; [11]
  Growth ratio % T:C: 66.4%
[5]; day 15
  Ratio (%) of % T:C with oligo to % T:C without oligo ([2]/[1] or [3]/[1]): 79%
[5]; [12]
  Growth ratio % T:C: 79.3%
[5]; day 18
  Ratio (%) of % T:C with oligo to % T:C without oligo ([2]/[1] or [3]/[1]): 81%
[5]; day 18, oligo 20, HCPT 3, 5-FU 10 mg/kg/day
  Growth ratio % T:C: 81.0%
[5]; day 21
  Ratio (%) of % T:C with oligo to % T:C without oligo ([2]/[1] or [3]/[1]): 76%
[5]; day 21 (end of experiment), oligo 20, HCPT 3, 5-FU 10 mg/kg/day
  Growth ratio % T:C: 76.0%
[6]; day 3
  Survival Rates of Animals: 100%
[6]; day 6
  Survival Rates of Animals: 100%
[6]; day 9
  Survival Rates of Animals: 100%
[6]; day 12
  Survival Rates of Animals: 100%
[6]; day 15
  Survival Rates of Animals: 100%
[6]; day 18
  Survival Rates of Animals: 100%
[7]
  effect of combination treatment on tumor growth: no significant effect
  xenograft pathology (tumor histology): indistinguishable histologically
[7]; daily ip dose 20 mg/kg
  effect on in vivo tumor growth: minimal effect
[7]; day 3
  Ratio (%) of % T:C with oligo to % T:C without oligo ([2]/[1] or [3]/[1]): 99%
[7]; [8]
  Growth ratio % T:C (mean tumor mass of treated group vs saline control): 98.6%
[7]; day 6
  Ratio (%) of % T:C with oligo to % T:C without oligo ([2]/[1] or [3]/[1]): 105%
[7]; [9]
  Growth ratio % T:C (mean tumor mass of treated group vs saline control): 104.9%
[7]; day 9
  Ratio (%) of % T:C with oligo to % T:C without oligo ([2]/[1] or [3]/[1]): 70%
[7]; [10]
  Growth ratio % T:C (mean tumor mass of treated group vs saline control): 69.7%
[7]; day 12
  Ratio (%) of % T:C with oligo to % T:C without oligo ([2]/[1] or [3]/[1]): 82%
[7]; [11]
  Growth ratio % T:C (mean tumor mass of treated group vs saline control): 81.5%
[7]; day 15
  Ratio (%) of % T:C with oligo to % T:C without oligo ([2]/[1] or [3]/[1]): 79%
[7]; [12]
  Growth ratio % T:C (mean tumor mass of treated group vs saline control): 79.4%
[7]; day 18
  Ratio (%) of % T:C with oligo to % T:C without oligo ([2]/[1] or [3]/[1]): 72%
[7]; day 18 (end of experiment), oligo 20, HCPT 3, 5-FU 10 mg/kg/day
  Growth ratio % T:C (mean tumor mass of treated group vs saline control): 73.3%
[7]; day 18, listed as ASM
  Ratio (%) of % T:C with oligo to % T:C without oligo ([2]/[1] or [3]/[1]): 73%
